Experimental data: patent publication US20090275583A1, “ANTIVIRAL COMPOUNDS AND USE THEREOF” (Myriad Genetics, Incorporated, priority 2006, published 2009)
Read-outs that look alike come from different tables or passages of the source.

Assays:
HIV-1NL4-3 = assay: P4-MAGI assay; assay type: cell-based
How it was run: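 Cytotoxicity (TC50, 50% growth inhibition) came from WST-1 in uninfected cells. For antiviral activity, compound at rising concentrations was added immediately after HIV-1NL4-3 inoculation (MOI 1, DEAE-Dextran) of P4 cells, CD4+ HeLa cells expressing β-galactosidase from a minimal HIV-1 LTR upon infection.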

[1] = tested on: HIV-1 laboratory strain, NL4-3; assay: MT-4 cytoprotection assay; assay type: cell-based
How it was run: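 MT-4 cells mock- or batch-infected with NL4-3 (MOI 0.0005) for 2 h, washed, then cultured 4 days with increasing compound concentrations. Viability read by WST-1 tetrazolium reduction: cytoprotection in infected cells, toxicity in mock-infected cells.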

[2] = Human immunodeficiency virus 1, 24 h, P4 cells, 24 hour incubation, β-galactosidase expression, read-out: P4-MAGI IC50
[3] = Human immunodeficiency virus 1, NL43, MT4, 96 h, MT-4 cells, four days incubation, WST-1 readout, read-out: MT4 EC50
[4] = Human immunodeficiency virus 1, text statement, less than about 100 nm, read-out: P4-MAGI assay IC50
[5] = Human immunodeficiency virus 1, NL43, less than about 100 nm, read-out: MT-4 assay EC50 (concentration of compound that reduces the virus induced cytopathic effect by 50%)

Structure (SMILES)	IC50 (HIV-1NL4-3; [2]) [nM]	EC50 [1, 3] [nM]	IC50 (HIV-1NL4-3; [4]) [nM]	EC50 [1, 5] [nM]
C=C(C)[C@@H]1CC[C@]2(C(=O)NCCc3cccc(C(=O)N[C@@H](C)c4cccc[n+]4[O-])c3)CC[C@]3(C)C(CCC4[C@@]5(C)CC[C@H](O)C(C)(C)C5CC[C@]43C)C12 (some centres unmarked) [Example 275]	180	1000		
C=C(C)[C@@H]1CC[C@]2(C(=O)NCc3cccc(C(=O)NCCCCCCC(=O)O)c3)CC[C@]3(C)C(CCC4[C@@]5(C)CC[C@H](O)C(C)(C)C5CC[C@]43C)C12 (some centres unmarked) [Example 2]	46.7	940	< 100	
C=C(C)[C@@H]1CC[C@]2(C(=O)NCCc3cccc(C(=O)NCc4ccc(C(=O)N[C@@H](C(=O)O)[C@H](C)N5CCN(C)CC5)cc4)c3)CC[C@]3(C)C(CCC4[C@@]5(C)CC[C@H](O)C(C)(C)C5CC[C@]43C)C12 (some centres unmarked) [Example 177]	8	92		
C=C(C)[C@@H]1CC[C@]2(C(=O)NCCc3cccc(C(=O)NCc4ccc(C(=O)N5CCN(C(=O)OC(C)(C)C)C(C(=O)OC)C5)cc4)c3)CC[C@]3(C)C(CCC4[C@@]5(C)CC[C@H](O)C(C)(C)C5CC[C@]43C)C12 (some centres unmarked) [Example 183]	44	108		
C=C(C)[C@@H]1CC[C@]2(C(=O)NCCc3cccc(C(=O)NCc4ccc(C(=O)O)s4)c3)CC[C@]3(C)C(CCC4[C@@]5(C)CC[C@H](O)C(C)(C)C5CC[C@]43C)C12 (some centres unmarked) [Example 70]	19.7	1.6	< 100	< 100
C=C(C)[C@@H]1CC[C@]2(C(=O)NCCc3cccc(C(=O)NCCc4ccc(C(=O)O)cc4)c3)CC[C@]3(C)C(CCC4[C@@]5(C)CC[C@H](O)C(C)(C)C5CC[C@]43C)C12 (some centres unmarked) [Example 68]	15.2	64	< 100	< 100
C=C(C)[C@@H]1CC[C@]2(C(=O)NCCc3cccc(C(=O)NCc4cccnc4C(=O)O)c3)CC[C@]3(C)C(CCC4[C@@]5(C)CC[C@H](O)C(C)(C)C5CC[C@]43C)C12 (some centres unmarked) [Example 230]	56	300		
C=C(C)[C@@H]1CC[C@]2(C(=O)NCc3cccc(C(=O)NCCc4ccc(S(N)(=O)=O)cc4)c3)CC[C@]3(C)C(CCC4[C@@]5(C)CC[C@H](O)C(C)(C)C5CC[C@]43C)C12 (some centres unmarked) [Example 45]	15.9	94	< 100	< 100
C=C(C)[C@@H]1CC[C@]2(C(=O)NCCc3cccc(C(=O)NCc4ccc(C(=O)O)o4)c3)CC[C@]3(C)C(CCC4[C@@]5(C)CC[C@H](O)C(C)(C)C5CC[C@]43C)C12 (some centres unmarked) [Example 156]	51	8		
C=C(C)[C@@H]1CC[C@]2(C(=O)NCCc3cccc(C(=O)NCc4ccc(C(=O)N[C@H](Cc5cc6ccccc6[nH]5)C(=O)O)cc4)c3)CC[C@]3(C)C(CCC4[C@@]5(C)CC[C@H](O)C(C)(C)C5CC[C@]43C)C12 (some centres unmarked) [Example 166]	22	13		
C=C(C)[C@@H]1CC[C@]2(C(=O)NCCc3ccc(F)c(C(=O)NCc4ccc(C(=O)O)cn4)c3)CC[C@]3(C)C(CCC4[C@@]5(C)CC[C@H](O)C(C)(C)C5CC[C@]43C)C12 (some centres unmarked) [Example 262]	11.5	7.2		
C=C(C)[C@@H]1CC[C@]2(C(=O)NCCc3ccc(C)c(C(=O)NCc4ccc(C(=O)O)cc4)c3)CC[C@]3(C)C(CCC4[C@@]5(C)CC[C@H](O)C(C)(C)C5CC[C@]43C)C12 (some centres unmarked) [Example 274]	84.5	4320		
C=C(C)[C@@H]1CC[C@]2(C(=O)NCCc3cccc(C(=O)NCCc4ccc(C(=O)O)cc4F)c3)CC[C@]3(C)C(CCC4[C@@]5(C)CC[C@H](O)C(C)(C)C5CC[C@]43C)C12 (some centres unmarked) [Example 75]	36.3	1.4	< 100	< 100
C=C(C)[C@@H]1CC[C@]2(C(=O)NCCc3cccc(C(=O)NCc4ccccc4OC)c3)CC[C@]3(C)C(CCC4[C@@]5(C)CC[C@H](O)C(C)(C)C5CC[C@]43C)C12 (some centres unmarked) [Example 200]	76.3	759		
C=C(C)[C@@H]1CC[C@]2(C(=O)NCCc3cccc(C(=O)NCc4ccc(O)cc4)c3)CC[C@]3(C)C(CCC4[C@@]5(C)CC[C@H](O)C(C)(C)C5CC[C@]43C)C12 (some centres unmarked) [Example 188]	12	37		
C=C(C)[C@@H]1CC[C@]2(C(=O)NCc3cccc(C(=O)NCCc4ccc(C(=O)O)cc4F)c3)CC[C@]3(C)C(CCC4[C@@]5(C)CC[C@H](O)C(C)(C)C5CC[C@]43C)C12 (some centres unmarked) [Example 43]	16.8	9.3	< 100	< 100
C=C(C)[C@@H]1CC[C@]2(C(=O)NCc3cc(C(=O)NCCc4cccc(C(=O)OC)c4)ccc3F)CC[C@]3(C)C(CCC4[C@@]5(C)CC[C@H](O)C(C)(C)C5CC[C@]43C)C12 (some centres unmarked) [Example 98]	57.7	13	< 100	< 100
